Experimental data as given in paper PMC4197335, “Cancer-Selective Targeting of the NF-κB Survival Pathway with GADD45β/MKK7 Inhibitors” (Cancer Cell, 2014).

Legend:
human PBMCs = assay: cells; conditions: Homo sapiens, PBMC, 48 h, read-out: IC50 (normal; PBMCs)
Description: (§1) Additional details are provided in Supplemental Experimental Procedures.
(§2) automated system (Becton Dick inson) and analyzed with FlowJo.

[1] = system: CD138+ cells from MM patients; assay: cells; conditions: Homo sapiens, 48 h, read-out: IC50 (MM; PCs (n = 8))
Description: as §1, §2

[2] = system: CD138+ cells from WM patients; assay: cells; conditions: Homo sapiens, 48 h, read-out: IC50 (WM; PCs (n= 2))
Description: as §1, §2

human BMSCs = assay: cells; conditions: Homo sapiens, BMSC, 48 h, read-out: IC50 (normal; BMSCs)
Description: as §1, §2

mouse splenocytes = assay: cells; conditions: Mus musculus, Splenocyte, 48 h, read-out: IC50 (normal; splenocytes)
Description: as §1, §2

[3] = system: human mesenchymal stem cells (MSCs); assay: cells; conditions: Homo sapiens, Mesenchymal stem cells, 48 h, read-out: IC50 (normal; MCSs)
Description: as §1, §2

[4] = system: mouse lymph node (LN) cells; assay: cells; conditions: Mus musculus, 48 h, read-out: IC50 (normal; lymph node cells)
Description: as §1, §2

U266 MM cells = assay: cells; conditions: Homo sapiens, U-266, 48 h
KMS-12 MM cells = assay: [3H]thymidine incorporation; assay type: cell-based; conditions: Homo sapiens, single agent at 48 hr
Description: as §1
Cell Proliferation, Cell Death, and Apoptosis Assays
W allac Trilux Microbeta 3 β -counter (Perk inElmer). Values were expressed as the percentage of the […]
respective untreated cultures. […]
splitting them as necessary during the assays. […]
previously (Riccardi and Nicoletti, 2006).
Cells were then f ixed in 70% ice- cold ethanol for 16 hr, washed in PBS, and treated with ribonuclease A (50 μg/mL) f or 30 min at room temperature. Samples were f inally stained with PI (50 µg/mL) in 0.1% sodium citrate buffer for 2 to 4 hr at 4°C in the dark , and data were acquired using a FACSCalibur automated system (Becton Dick inson) and analyzed with FlowJo.
The viability of primary CD138 + cells f rom patients was assessed using trypan blue exclusion assays (Mauro et al., 2011; Arnold et al., 2008), perf ormed as described above. Cells were seeded […]
Cell viability in the treated cultures was expressed as the percentage of cell survival relative to the survival observed in the respective untreated cultures, represented as 100%. […]
The activities of DTP3 and bortezomib in the U266 and KMS-12 myeloma cell lines, both as single agents and in combination, were determined using [3H]thymidine incorporation assays, performed as described above in “Cell Prolif eration, Cell Death, and Apoptosis Assays”. […]

IC50 [1]: 8.7 ± 2.1 nM | IC50 [2]: 3.38 ± 2 nM | IC50 (U266 MM cells): 6 nM | IC50 (KMS-12 MM cells): 6 nM
SMILES: CC(C)C[C@H](NC(=O)[C@H](Cc1ccccc1)NC(=O)c1cnccn1)B(O)O [Bortezomib, reference compound]
IC50 (human PBMCs): 63.1 nM | IC50 (human BMSCs): 80 nM | IC50 (mouse splenocytes): 80 nM | IC50 [3]: 79.4 nM | IC50 [4]: 91.1 nM
